Test results taken from patent publication EP0973746B1, “SUBSTITUTED 3-CYANO QUINOLINES” (Wyeth Holdings Corporation, priority 1997, dated 1998).
pIC50: −log10 of the molar value. Values after ≈ are worked out from the molar mass of the structure shown. Values joined by “and” are separate entries in the source; they are usually repeats but may differ in a detail not shown here. Identical values can stand only once. Like-named read-outs stand apart in the source and are kept apart here.

How the values were obtained:
[1] = tested on: LX1; test: Inhibition of cancer cell growth as measured by cell number, LX1; type: cell-based; conditions: Homo sapiens, LX-1, 48 h, read-out: IC50 LX1
[2] = tested on: COLO205; test: Inhibition of cancer cell growth as measured by cell number, COLO205; type: cell-based; conditions: Homo sapiens, COLO 205, 48 h, read-out: IC50 COLO205
[3] = tested on: A431; test: Inhibition of cancer cell growth as measured by cell number, A431; type: cell-based, human; conditions: Homo sapiens, A-431, 48 h, read-out: IC50 A431, cell number, Sulforhodamine B, 48 hours exposure;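 further: human A431 line, picked because it overexpresses epidermal growth factor receptor (EGFR)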
Description: (§1) The cell lines were chosen since they overexpressed epidermal growth factor receptor (EGFR) (i.e. A431) or HER2/neu (SKBR3), or had little to no expression of the these receptors (SW620, LOX, MCF7).

[4] = tested on: MIP; test: Inhibition of cancer cell growth as measured by cell number, MIP; type: cell-based; conditions: Homo sapiens; cell number, Sulforhodamine B, 48 hours exposure; Table 4; read-out: IC50 MIP
[5] = tested on: LNCAP; test: Inhibition of cancer cell growth as measured by cell number, LNCAP; type: cell-based; conditions: Homo sapiens, 48 h, read-out: IC50 LNCAP
[6] = tested on: LOX; test: Inhibition of cancer cell growth as measured by cell number, LOX; type: cell-based, human; conditions: Homo sapiens, LOX, 48 h, read-out: IC50 LOX, cell number, Sulforhodamine B, 48 hours exposure;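 further: LOX cells served as a line with low or absent EGFR and HER2/neu expression, in contrast to receptor-overexpressing lines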
Description: as §1

[7] = tested on: HL60; test: Inhibition of cancer cell growth as measured by cell number, HL60; type: cell-based; conditions: Homo sapiens, HL-60, 48 h, read-out: IC50 HL60
[8] = tested on: T47D; test: Inhibition of cancer cell growth as measured by cell number, T47D; type: cell-based; conditions: Homo sapiens, 48 h, read-out: IC50 T47D
[9] = tested on: CCRF-CFM; test: Inhibition of cancer cell growth as measured by cell number, CCRF-CFM; type: cell-based; conditions: Homo sapiens, 48 h, read-out: IC50 CCRF-CFM
[10] = tested on: HCT15; test: Inhibition of cancer cell growth as measured by cell number, HCT15; type: cell-based; conditions: Homo sapiens, HCT-15, 48 h, read-out: IC50 HCT15
[11] = tested on: LS174T; test: Inhibition of cancer cell growth as measured by cell number, LS174T; type: cell-based; conditions: Homo sapiens, 48 h, read-out: IC50 LS174T
[12] = tested on: CACO2; test: Inhibition of cancer cell growth as measured by cell number, CACO2; type: cell-based; conditions: Homo sapiens, Caco-2, 48 h, read-out: IC50 CACO2
[13] = tested on: B7474; test: Inhibition of cancer cell growth as measured by cell number, B7474; type: cell-based; conditions: Homo sapiens, 48 h, read-out: IC50 B7474
[14] = tested on: MCF7; test: Inhibition of cancer cell growth as measured by cell number, MCF7; type: cell-based, human; conditions: Homo sapiens, MCF7, 48 h, read-out: IC50 MCF7, cell number, Sulforhodamine B, 48 hours exposure;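 further: MCF7 was included as a line with little or no EGFR or HER2/neu expression, in contrast to the receptor-overexpressing lines of the panel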
Description: as §1

[15] = tested on: HTB161; test: Inhibition of cancer cell growth as measured by cell number, HTB161; type: cell-based; conditions: Homo sapiens, 48 h, read-out: IC50 HTB161
[16] = tested on: A431; test: Inhibition of cell growth by incorporation of [3H]-thymidine, A431; type: cell-based, human; conditions: Homo sapiens, A-431, read-out: IC50 A431
[17] = target: epidermal growth factor receptor kinase (Homo sapiens, UniProt P00533); test: biochemical
[18] = tested on: CX1; test: Inhibition of cancer cell growth as measured by cell number, CX1; type: cell-based; conditions: Homo sapiens, CX-1, 48 h, read-out: IC50 CX1
[19] = tested on: A27805; test: Inhibition of cancer cell growth as measured by cell number, A27805; type: cell-based; conditions: Homo sapiens, 48 h, read-out: IC50 A27805
[20] = tested on: A2780DDP; test: Inhibition of cancer cell growth as measured by cell number, A2780DDP; type: cell-based; conditions: Homo sapiens, 48 h, read-out: IC50 A2780DDP
[21] = tested on: NEC; test: Inhibition of cancer cell growth as measured by cell number, NEC; type: cell-based; conditions: Homo sapiens, 48 h, read-out: IC50 NEC
[22] = tested on: SW948; test: Inhibition of cancer cell growth as measured by cell number, SW948; type: cell-based; conditions: Homo sapiens, SW948, 48 h, read-out: IC50 SW948
[23] = tested on: human epidermoid tumors (A431); test: In vivo inhibition of the growth of human epidermoid tumors (A431); conditions: for S/T = No. Survivors/No. Treated: Day +28 post tumor staging; for tumor growth was inhibited: 100 mg/kg administered i.p. during days 1-10
How it was run: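 Female BALB/c nu/nu mice from Charles River were injected subcutaneously with 5 X 10^6 human epidermoid (A431) tumor cells. Once tumors weighed 100 to 150 mg, animals were randomized into treatment groups on day zero, and untreated controls were included. Tumor mass, calculated as (length X width^2)/2, was measured every 7 days for 28 days after staging. Relative growth was mean mass on days 7, 14, 21 and 28 divided by the day-zero mean.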

[24] = tested on: A549; test: Inhibition of cancer cell growth as measured by cell number, A549; type: cell-based; conditions: Homo sapiens, A549, 48 h, read-out: IC50 A549
[25] = tested on: SKBR3; test: Inhibition of cancer cell growth as measured by cell number, SKBR3; type: cell-based, human; conditions: Homo sapiens, SK-BR-3, 48 h, read-out: IC50 SKBR3, cell number, Sulforhodamine B, 48 hours exposure;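 further: SK-BR-3 cells were selected as a line overexpressing HER2/neu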
Description: as §1

[26] = tested on: NHEK; test: Inhibition of cell growth by incorporation of [3H]-thymidine, NHEK; type: cell-based, human; conditions: Homo sapiens, read-out: IC50 NHEK
Protocol: Representative compounds of this invention were evaluated for their ability to inhibit the growth of the cell lines described below in vitro. The inhibition is quantitated by measuring the decrease in the incorporation of radio-labeled thymidine when the cells are grown in the presence of the inhibitor. […] Cells were routinely grown in a humidified incubator in 5% CO2 in air.
Cells were seeded at 10,000 cells/well in 96 well plates in complete media and allowed to grow to log phase. At this stage the complete media was replaced with media containing 0.5% FBS (for cells growing in 10% FBS) or media lacking epidermal growth factor (EGF) (for cells growing in serum free media). […] Media with test compound was then removed and complete media was added back. The cells were allowed to grow for 18 hours. This is followed by incubation in [^3H]thymidine (1mCi/ml in serum/EGF media) for 4 hours. Cells were lysed in 0.5 M NaOH for at least 30 min at 37°C and radioactivity analyzed.
The % inhibition of the compound evaluated was determined for at least three different concentrations and the IC50 value evaluated from the dose response curve. […] CPM(control) is in units of counts per minute and is a number expressing the amount of [^3H]thymidine incorporated onto the DNA when cells are grown in the absence of test compound as measured by liquid scintillation counting.

[27] = tested on: CCL228; test: Inhibition of cancer cell growth as measured by cell number, CCL228; type: cell-based; conditions: Homo sapiens, 48 h, read-out: IC50 CCL228
[28] = tested on: SW620; test: Inhibition of cancer cell growth as measured by cell number, SW620; type: cell-based, human; conditions: Homo sapiens, SW-620, 48 h, read-out: IC50 SW620, cell number, Sulforhodamine B, 48 hours exposure;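 further: SW620 was included as a cell line with little or no EGFR or HER2/neu expression, in contrast to receptor-overexpressing lines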
Description: as §1

[29] = target: recombinant human MEK 1 (MAPKK) and recombinant human ERK2 (MAPK); test: Mitogen Activated Protein Kinase (MAPK) assay, two component coupled MEK 1 / ERK2; type: biochemical; conditions: separate entries for the same compound = evaluated more than one time;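 further: MEK 1-activated ERK2 phosphorylates MBP or Myc peptide with 33P-ATP, filter capture and scintillation counting, inhibitor preincubated with ERK2 30 min at 0 °C, inhibition relative to uninhibited control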
[30] = 10 mg/kg/dose IP on days 1 through 10
[31] = 50 mg/kg/dose IP on days 1 through 10
[32] = 100 mg/kg/dose IP on days 1 through 10

epidermal growth factor receptor kinase, sequence (P00533 25-1210): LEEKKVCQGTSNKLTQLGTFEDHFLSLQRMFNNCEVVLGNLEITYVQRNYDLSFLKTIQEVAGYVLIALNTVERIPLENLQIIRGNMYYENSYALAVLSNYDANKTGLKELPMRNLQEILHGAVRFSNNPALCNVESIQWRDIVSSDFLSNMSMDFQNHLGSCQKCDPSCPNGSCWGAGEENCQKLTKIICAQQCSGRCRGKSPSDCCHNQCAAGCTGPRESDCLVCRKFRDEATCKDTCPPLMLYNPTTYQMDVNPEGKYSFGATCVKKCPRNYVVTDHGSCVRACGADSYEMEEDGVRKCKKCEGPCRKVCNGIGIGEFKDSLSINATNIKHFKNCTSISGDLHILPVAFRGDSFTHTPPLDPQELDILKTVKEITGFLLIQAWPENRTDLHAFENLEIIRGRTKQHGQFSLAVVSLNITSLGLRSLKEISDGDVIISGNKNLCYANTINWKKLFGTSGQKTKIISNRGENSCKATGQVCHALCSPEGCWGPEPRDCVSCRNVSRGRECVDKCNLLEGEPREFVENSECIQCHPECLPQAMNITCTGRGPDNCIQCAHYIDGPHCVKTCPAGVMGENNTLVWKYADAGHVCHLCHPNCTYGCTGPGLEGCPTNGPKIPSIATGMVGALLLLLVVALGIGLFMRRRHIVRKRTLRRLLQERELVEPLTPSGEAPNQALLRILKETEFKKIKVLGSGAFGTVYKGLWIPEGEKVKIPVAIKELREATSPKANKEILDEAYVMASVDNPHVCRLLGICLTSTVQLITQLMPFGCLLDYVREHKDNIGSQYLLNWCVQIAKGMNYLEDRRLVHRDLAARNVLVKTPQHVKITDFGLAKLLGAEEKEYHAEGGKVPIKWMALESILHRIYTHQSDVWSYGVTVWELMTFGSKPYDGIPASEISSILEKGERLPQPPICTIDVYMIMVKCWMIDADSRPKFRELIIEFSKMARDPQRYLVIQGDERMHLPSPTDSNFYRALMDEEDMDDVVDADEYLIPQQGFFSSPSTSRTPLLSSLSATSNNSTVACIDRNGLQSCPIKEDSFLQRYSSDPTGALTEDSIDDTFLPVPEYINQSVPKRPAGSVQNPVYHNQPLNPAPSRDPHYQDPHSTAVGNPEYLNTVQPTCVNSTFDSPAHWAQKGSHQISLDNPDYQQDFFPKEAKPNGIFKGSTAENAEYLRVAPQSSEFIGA

CCOc1cc2ncc(C#N)c(Nc3cccc(Br)c3)c2cc1OCC [Example 47, 4-[(3-Bromophenyl)amino]6,7-diethoxy-3-quinolinecarbonitrile]
IC50 [1]: 0.076 µg/mL (≈ 0.184 µM)
IC50 [2]: 0.0757 µg/mL (≈ 0.184 µM)
IC50 ([3]; Table 6): 0.0446 µg/mL (≈ 0.108 µM)
IC50 ([3]; Table 8): < 0.01 µg/mL
IC50 [4]: 0.0693 µg/mL (≈ 0.168 µM)
IC50 [5]: 0.0337 µg/mL (≈ 0.0816 µM)
IC50 ([6]; Table 6): 0.0605 µg/mL (≈ 0.147 µM)
IC50 ([6]; Table 8): 0.03 µg/mL (≈ 0.0728 µM)
IC50 [7]: 0.0625 µg/mL (≈ 0.152 µM)
IC50 [8]: 0.0467 µg/mL (≈ 0.113 µM)
IC50 [9]: 0.068 µg/mL (≈ 0.165 µM)
IC50 [10]: 0.0395 µg/mL (≈ 0.0959 µM)
IC50 [11]: 0.0468 µg/mL (≈ 0.114 µM)
IC50 [12]: 0.0701 µg/mL (≈ 0.17 µM)
IC50 [13]: 0.233 µg/mL (≈ 0.566 µM)
IC50 ([14]; Table 5): 0.072 µg/mL (≈ 0.175 µM)
IC50 ([14]; Table 8): 0.02 µg/mL (≈ 0.0485 µM)
IC50 [15]: 3.95 ng/mL (≈ 0.00957 µM)
pIC50 [16]: 5.82
pIC50 [17]: 6.89
IC50 [18]: 0.0618 µg/mL (≈ 0.15 µM)
IC50 [19]: 0.053 µg/mL (≈ 0.129 µM)
IC50 [20]: 0.0645 µg/mL (≈ 0.157 µM)
IC50 [21]: 0.0671 µg/mL (≈ 0.163 µM)
IC50 [22]: 0.0683 µg/mL (≈ 0.166 µM)
%T/C Day 7 [23, 30]: 69%
%T/C Day 14 [23, 30]: 74%
%T/C Day 21 [23, 30]: 116%
%T/C Day 28 [23, 30]: 136%
S/T = No. Survivors/No. Treated [23, 30]: 5/5
%T/C Day 7 [23, 31]: 44 (d) %
%T/C Day 14 [23, 31]: 55 (d) %
%T/C Day 21 [23, 31]: 87%
%T/C Day 28 [23, 31]: 102%
S/T = No. Survivors/No. Treated [23, 31]: 5/5
tumor growth was inhibited ([23]; day 7): 66%
tumor growth was inhibited ([23]; day 14): 63%
tumor growth was inhibited ([23]; day 28): 57%
%T/C Day 7 [23, 32]: 34(d) %
%T/C Day 14 [23, 32]: 37(d) %
%T/C Day 21 [23, 32]: 51%
%T/C Day 28 [23, 32]: 43%
S/T = No. Survivors/No. Treated [23, 32]: 5/5
IC50 [24]: 0.0679 µg/mL (≈ 0.165 µM)
IC50 ([25]; Table 7): 0.0467 µg/mL (≈ 0.113 µM)
IC50 ([25]; Table 8): < 0.01 µg/mL
pIC50 [26]: 7.52
IC50 [27]: 0.0715 µg/mL (≈ 0.174 µM)
IC50 ([28]; Table 4): 0.0672 µg/mL (≈ 0.163 µM)
IC50 ([28]; Table 8): < 0.01 µg/mL
pIC50 [29]: 5.10 and 5.30
